Data on 4 molecules can be found in patent US11618746B2, “Inhibitors of APOL1 and methods of using same” (Vertex Pharmaceuticals Incorporated, priority 2018, dated 2023).

A value given as a limit tells only on which side of the number the result lay.

The target of this assay is T1, APOL1 G1 Protein (Homo sapiens, UniProt O14791, I384M/S342G).
T1 sequence (O14791 28-398 S342G/I384M): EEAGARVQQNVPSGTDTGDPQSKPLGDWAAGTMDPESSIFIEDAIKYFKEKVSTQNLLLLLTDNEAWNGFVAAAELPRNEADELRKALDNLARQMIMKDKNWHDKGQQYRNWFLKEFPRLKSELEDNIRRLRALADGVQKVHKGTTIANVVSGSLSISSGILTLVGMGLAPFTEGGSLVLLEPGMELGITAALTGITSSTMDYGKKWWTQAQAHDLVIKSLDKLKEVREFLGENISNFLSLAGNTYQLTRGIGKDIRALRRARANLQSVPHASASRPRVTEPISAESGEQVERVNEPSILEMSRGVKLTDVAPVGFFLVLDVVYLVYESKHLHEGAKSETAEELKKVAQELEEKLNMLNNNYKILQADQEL
Put plainly: Trypanosoma brucei brucei lysis assay using APOL1 recombinant protein (AlamarBlue viability readout). Particulars: Trypanosoma brucei brucei (Lister 427 VSG 221 bloodstream form) lysis by 0.05 μg/mL recombinant APOL1 G1, 16 hrs. It counts as cell-based. An excerpt:
Trypanosoma brucei brucei is a blood stream parasite to which human, gorillas and baboon are immune due to the presence of the APOL1 protein in their HDL particles. The protein is uptaken by the parasite via the TbHpHb receptor located in its flagellar pocket and is bonded by the Hpr protein contained in the HDL particles which triggers the receptor endocytosis by the parasite.
Following endocytosis, the formed vesicle containing the HDL particle matures from early to late endosome, and subsequently to lysosome. The concomitant pH change in the lumen of the vesicle triggers the insertion of the APOL1 protein into the membrane of the late endosome/lysosome and hereby triggers lysosomal membrane premeabilisation and as a further downstream event, trypanosome lysis. Trypanosoma brucei brucei is sensitive to lysis by all three APOL1 variants (G0, G1, and G2).
The Trypanosoma brucei brucei lysis assay is a lysis assay of the parasite using recombinant APOL1 protein variant followed by a fluorescent detection method of viability by the addition of AlamarBlue reagent to the assay well, a general metabolic redox indicator (AlamarBlue assay).
Briefly, the AlamarBlue active compound, the resazurin, a blue, water soluble, non-toxic and cell permeable molecule, which can be followed by absorbance, is reduced by various metabolic pathways into resorufin, a red compound which can be followed by either absorbance or fluorescence. The assay allows the calculation of the percent viability (percent of living Trypanosomes remaining in each well) at the end of a lysis relative to the untreated condition by interpolation of fluorescent values (FLU) on a standard curve with a known amount of seeded trypanosome/well.
Trypanosoma brucei brucei (ATCC, Cat. No. PRA-382) • Lister 427 VSG 221 bloodstream form.
Thaw/Expansion Media (ATCC Medium 2834 Modified HMI-9 Medium)
Equipment • E1-Clip Tip pipette 12 channel adjustable 2-125 μL, Cat. No. 4672070BT • ThermoFisher MultiDrop 384, Cat. No. 5840300 • Multidrop • Agilent Bravo, Cat. No. G5409A • Bravo • SpectraMax M5
Trypanosoma brucei brucei Culture
Step 2, Day 4 • Centrifuge at 800×g for 5 minutes at room temperature. • Resuspend in 1 mL media. • Make a 1:25 fold dilution (10 μL/240 μL media). • Count on a hemocytometer (after adding parasites). • Let sit for 1-2 minutes for the parasites to settle. • Count should be approximately 100 viable motile parasites/16 grid or approximately 25×10^6 parasites/flask. • Passage the parasites by adding 1×10^6 parasites/T75 flask in 20 mL media. • Passage the parasites by adding 2.33×10^6 parasites/T175 flask in 46.6 mL media. • For every T75 flask should make enough for approximately 1.5×384 well assay plates. • For every T175 flask should make enough for approximately 3.8×384 well assay plates.
Step 3. Day 6 • Centrifuge at 800×g for 5 minutes. • Resuspend in 3 mL assay media (No phenol red, no FBS) per 75 starting flask. • Resuspend in 7 mL assay media (No phenol red, no FBS) per 175 flask • Make a 1:25 fold dilution. • Count by hemocytometer. • Every T75 flask set up should have approximately 75×10^6 parasites/flask (verify doubling time=8.7 hrs 1 hr). • Every T175 flask set up should have approximately 175×10^6 parasites/flask (verify doubling time=8.7 hrs±1 hr). • Require 46×10^6 parasites per 384 well plate (at 120,000 parasites per well).
Step 2, Day 2 • Centrifuge at 800×g for 5 minutes at room temperature. • Resuspend in 1 mL media. • Make a 1:25 fold dilution (10 L/240 μL media). • Let sit for 1-2 minutes for the parasites to settle. • Count should be approximately 100 viable motile parasites/16 grid or approximately 8×10^6 parasites per flask. • Passage the parasites by adding 1.25×10^6 parasites per T75 flask in 20 mL media. • For every T75 flask set up should have approximately 1.5×384 well assay plates. • For every T175 flask setup should have approximately 3.8×384 well assay plates. […]
(In general: The colour change of resazurin is a common sign of viable cells or microbes.)
Take `O=C(CCc1c(-c2ccc(F)cc2)[nH]c2c(F)cc(F)cc12)N[C@@H]1C(=O)NC[C@@H]1O` [Compound 1, 3-[5,7-difluoro-2-(4-fluorophenyl)-1H-indol-3-yl]-N-[(3S,4S)-4-hydroxy-2-oxo-pyrrolidin-3-yl]propanamide]: the 50% inhibitory concentration (IC50) (commonly the midpoint of a concentration-inhibition curve) is less than 250 nM. Next, `[2H]C([2H])(C(=O)N[C@@H]1C(=O)NC[C@H]1O)C([2H])([2H])c1c(-c2ccc(F)cc2)[nH]c2c(F)cc(F)cc12` [Compound 88, 2,2,3,3-tetradeutero-3-[5,7-difluoro-2-(4-fluorophenyl)-1H-indol-3-yl]-N-[(3S,4R)-4-hydroxy-2-oxo-pyrrolidin-3-yl]propanamide]: less than 250 nM; `O=C(CCc1c(-c2ccc(F)cc2)[nH]c2c(F)cc(F)cc12)N[C@@H]1C(=O)NC[C@H]1O` [Compound 2, 3-[5,7-difluoro-2-(4-fluorophenyl)-1H-indol-3-yl]-N-[(3S,4R)-4-hydroxy-2-oxo-pyrrolidin-3-yl]propanamide]: less than 250 nM. Next, `[2H]C(C(=O)N[C@@H]1C(=O)NC[C@H]1O)C([2H])c1c(-c2ccc(F)cc2)[nH]c2c(F)cc(F)cc12` (stereo partly drawn) [Compound 89, 2,3-dideuterio-3-[5,7-difluoro-2-(4-fluorophenyl)-1H-indol-3-yl]-N-[(3S,4R)-4-hydroxy-2-oxo-pyrrolidin-3-yl]propanamide]: less than 250 nM.
